Several values for one entry are separate records, joined by “and”; a condition that tells them apart may be missing. Identical values can stand only once. Counter-ions that a name gives are not always drawn.
Tests used:
TNF-α in Th9 cells = assay: Flow cytometry of TNF-α in Th9 cells in vitro (Figure 3F, 5I, 7C, S8M-N); format: cell-based, mouse; parameters: TNF expression in Th9 cells / TNF-α expression of Th9 cells: unit not given here; settings: for TNF expression in Th9 cells: Figure 7C, one per column (n = 4); for TNF (flow cytometric quantification): Figure 5I, (n = 5); for TNF-α expression of Th9 cells: Supplemental Figure 8N
Protocol: (§1) Naive CD4^+ T cells were isolated from the spleens of C57BL/6J or CD45.1^+ OT-II mice using the MojoSort Mouse CD4 Naive T Cell Isolation Kit (BioLegend, catalog 480040), following the manufacturer’s protocol. Purified cells were cultured in RPMI-1640 medium supplemented with 10% FBS, 1% penicillin-streptomycin, and 0.1% β-mercaptoethanol (Gibco, catalog 21985023).
(§2) T cell polarization was initiated under plate-bound anti-CD3 (2 μg/mL, clone 17A2, BioXCell, catalog BE0002) and soluble anti-CD28 (1 μg/mL, clone 37.51, BioXCell, catalog BE0015-1) stimulation, with the addition of cytokines and neutralizing antibodies specific to each subset. For Th9 cells, these included IL-4 (10 ng/mL, Peprotech, catalog 400-04), TGF-β (1 ng/mL, EPOTO Biotech, catalog HF-2021), anti–IL-12 (5 μg/mL, clone C17.8, BioXCell, catalog BE0051), and anti–IFN-γ (10 μg/mL, clone XMG1.2, BioXCell, catalog BE0055); for Th1 cells, these included IL-12 (10 ng/mL, GenScript, catalog Z03211-50) and anti–IL-4 (5 μg/mL, clone 11B11, BioXCell, catalog BE0045); for Th2 cells, these included IL-4 (50 ng/mL), anti–IFN-γ (20 μg /mL), anti–IL-12 (5 μg/mL), Th17 cells: IL-6 (20 ng/mL, EPOTO Biotech, catalog MF-1006), TGF-β (1 ng/mL), IL-1β (10 ng/mL, Peprotech, catalog AF-211-11B), anti–IFN-γ (10 μg/mL), anti–IL-12 (5 μg/mL), and anti–IL-4 (5 μg/mL); and for Tregs, these included TGF-β (3 ng/mL). After 3 days of initial culture, cells were either collected for downstream assays or continued in extended culture with refreshed cytokines to maintain lineage commitment.
(§3) Details regarding staining panels (human and mouse), reagents (including clones and catalog numbers), acquisition settings, compensation/controls, and analysis procedures are provided in Supplemental Methods.
(§4) BioLegend, Cat. No. 422301 or Mouse TruStain FcX™, BioLegend, Cat. No. 101319) for 10 minutes at 4°C. For surface marker detection, cells were stained with fluorochrome-conjugated monoclonal antibodies in 96-well V-bottom plates and incubated on ice for 30 minutes. After staining, cells were washed twice and resuspended in FACS buffer for analysis.
(§5) Prior to intracellular cytokine staining, cells were restimulated for 4 hours with PMA (Absin, Cat. No. abs9107), ionomycin (Sigma-Aldrich, Cat. No. I0634), and brefeldin A (MedChemExpress, Cat. No. HY-16592). For intracellular cytokine staining, cells were first surface-stained as described above, then fixed and permeabilized using the BD Cytofix/Cytoperm™ kit (BD Biosciences, Cat. No. 554714) according to the manufacturer ’s protocol. Intracellular proteins were stained with directly conjugated antibodies targeting IL-9, IL-17a, IL-4, IFN-γ, TNF-α, FOXP3, p-ZAP70, Perforin, and […]
(§6) Antibodies used for mouse samples included those against IL-9 (PE, clone RM9A4, Biolegend, Cat. No. 514104), IFN-γ (PE, clone XMG1.2, Biolegend, Cat. No.
(§7) Cat. No. 103138), CD4 (APC/Cy7, clone E-AB-F1353UJ, Elabscience, Cat. No.
(§8) AF18028), CD8α (PerCP/Cy5.5, clone E-AB-F1104UJ, Elabscience, Cat. No. […]
(§9) clone E-AB-F1187UH, Elabscience, Cat. No. AF19854), TNF-α (BV421, clone MP6-XT22, Biolegend, Cat. No. 506328), FOXP3 (PE, clone FJK-16s, eBioscience, Cat. No.
(§10) Perforin (APC, clone S16009A, Biolegend, Cat. No. 154303) and Granzyme B (APC, […]
(§11) clone QA16A02, Biolegend, Cat. No. 372203). […]

PD-1 on Th9 cells = assay: Flow cytometry of PD-1 on Th9 cells in vitro (Figure 5K, 7E, S3D); format: cell-based, mouse; settings: for PD-1 expression in Th9 cells: Figure 7E, one per column (n = 4); for PD-1 expression in Th9 cells / PD1 (flow cytometric quantification): individual replicates; for PD-1 expression: result in words; for PD1 (flow cytometric quantification): Figure 5K, (n = 5); for Expression of PD-1 in Th9: Supplemental Figure 3D
Protocol: as §1, §2, §3, §4, §5, §6, §7, §8, §9, §10, §11

CD69 on Th9 cells = assay: Flow cytometry of CD69 on Th9 cells in vitro (Figure 5J, 7D); format: cell-based, mouse; parameters: CD69 expression in Th9 cells: unit not given here; settings: for CD69 expression in Th9 cells: Figure 7D, one per column (n = 4); for CD69 expression in Th9 cells / CD69 (flow cytometric quantification): individual replicates; for CD69 (flow cytometric quantification): Figure 5J, (n = 5)
Protocol: as §1, §2, §3, §4, §5, §6, §7, §8, §9, §10, §11

[1] = test system: mitochondria of Th9 cells; assay: Flow cytometry with MitoTracker Deep Red (Figure 4M, 5L, 7F, 7J); format: cell-based, mouse; settings: for mitochondrial membrane potential measured by MitoTracker staining: Figure 7F; for mitochondrial membrane potential measured by MitoTracker staining / Mito tracker (flow cytometric quantification): (n = 3); for Mito tracker (flow cytometric quantification): Figure 5L; for mitochondrial membrane potential in Th9 cells: Figure 7J, one per column (n = 4)
Protocol: […] Cells were incubated with the respective dyes, washed, and subjected to flow cytometry or fluorescence microscopy analysis. For ultrastructural assessment, mitochondrial number and diameter were quantified from high-resolution transmission electron microscopy (TEM) images using ImageJ software.

[2] = test system: mitochondria of human Th9 cells; assay: Mitochondrial membrane potential / mass of human Th9 cells (Figure 8D, S9B); format: cell-based; settings: for mitochondrial mass using Mito Tracker in human Th9 cells: flow cytometry, Supplemental Figure 9B
Protocol: For Th9 polarization, cultures were supplemented with IL-4 (10 ng/mL, PeproTech, catalog AF-200-04), TGF-β (1 ng/mL), and neutralizing anti–IFN-γ monoclonal antibody (10 μg/mL, clone B27, BioXcell, catalog BE0245). After 3 days of initial culture, cells were either collected for downstream assays or continued in extended culture with refreshed cytokines to maintain lineage commitment without antibodies. Th9 cells were collected at days 4, 5, and 6 for subsequent in vitro assays. For adoptive transfer studies, day 4–cultured Th9 cells were washed and prepared for intravenous injection.
(§12) Mitochondrial mass and membrane potential were assessed using MitoTracker™ Deep Red FM (Thermo Fisher Scientific, catalog M22426) and TMRM (tetramethylrhodamine methyl ester; Macklin, catalog T868125), respectively, following the manufacturers’ protocols. Cells were incubated with the respective dyes, washed, and subjected to flow cytometry or fluorescence microscopy analysis. For ultrastructural assessment, mitochondrial number and diameter were quantified from high-resolution transmission electron microscopy (TEM) images using ImageJ software.

[3] = test system: mitochondria of Th9 cells; assay: Flow cytometry of mitochondrial membrane potential with TMRM (Figure 4N); format: cell-based, mouse
Protocol: as §12

[4] = single agent, 10 µM, individual replicates
[5] = single agent, individual replicates
[6] = EpA + fatostatin, result in words
[7] = EpA + ERKin combination, individual replicates
[8] = EpA + MEKin combination, individual replicates
[9] = EpA (10 µM) + Fatostatin (10 µM)

CCCc1cc(-c2nc(-c3ccc(C)cc3)cs2)ccn1 [fatostatin, fatostatin hydrobromide, reference compound]
TNF expression in Th9 cells (TNF-α in Th9 cells; [4]): 2574 and 2507 and 2536 and 2484 | PD-1 expression in Th9 cells (PD-1 on Th9 cells; single agent, 10 µM): 384 and 402 and 369 and 372 | PD-1 expression (PD-1 on Th9 cells; fatostatin alone or with EpA): induced PD-1 upregulation in control Th9 cells | CD69 expression in Th9 cells (CD69 on Th9 cells; single agent, 10 µM): 39.9 and 41.1 and 41.2 and 39.2 | mitochondrial membrane potential measured by MitoTracker staining [1, 5]: 1160 and 1151 and 1173 | mitochondrial membrane potential, human EpA-Th9 ([2]; with fatostatin, result in words): further augmented

anteiso-C15 Leu7 surfactin [EpA]
TNF-α production (TNF-α in Th9 cells; [6]): elevated in the combination group | MFI of TNF-α (TNF-α in Th9 cells; EpA-treated Th9 cells, individual replicates, n = 6): 2286 and 2180 and 2244 and 2177 and 2115 and 2169 | TNF (flow cytometric quantification) (TNF-α in Th9 cells; [7]): 2696 and 2174 and 2281 and 2032 and 1920 | TNF (flow cytometric quantification) (TNF-α in Th9 cells; [8]): 1415 and 1401 and 1417 and 1456 and 1441 | TNF (flow cytometric quantification) (TNF-α in Th9 cells; [5]): 2873 and 2973 and 3771 and 3384 and 2525 | TNF expression in Th9 cells (TNF-α in Th9 cells; EpA (10 µM) + Fatostatin (10 µM), individual replicates): 3879 and 3735 and 3908 and 3188 | TNF expression in Th9 cells (TNF-α in Th9 cells; [4]): 2951 and 2896 and 2950 and 2779 | TNF-α expression of Th9 cells (TNF-α in Th9 cells; MigR1, replicate 1): 2796 | TNF-α expression of Th9 cells (TNF-α in Th9 cells; MigR1, replicate 2): 2837 | TNF-α expression of Th9 cells (TNF-α in Th9 cells; MigR1, replicate 3): 2787 | TNF-α expression of Th9 cells (TNF-α in Th9 cells; SREBP1, replicate 1): 2060 | TNF-α expression of Th9 cells (TNF-α in Th9 cells; SREBP1, replicate 2): 1962 | TNF-α expression of Th9 cells (TNF-α in Th9 cells; SREBP1, replicate 3): 1934 | EpA-induced TNF-α increase (protein) upon SREBP1 overexpression (TNF-α in Th9 cells; result in words): markedly suppressed | PD-1 expression (PD-1 on Th9 cells; EpA-Th9 cells in vitro): increased PD-1 expression | PD1 (flow cytometric quantification) (PD-1 on Th9 cells; EpA + ERKin combination): 205 and 196 and 199 and 194 and 192 | PD1 (flow cytometric quantification) (PD-1 on Th9 cells; EpA + MEKin combination): 163 and 169 and 166 and 170 and 159 | PD1 (flow cytometric quantification) (PD-1 on Th9 cells; single agent): 986 and 1657 and 450 and 878 and 1491 | PD-1 expression in Th9 cells (PD-1 on Th9 cells; [9]): 424 and 342 and 382 and 324 | PD-1 expression in Th9 cells (PD-1 on Th9 cells; single agent, 10 µM): 366 and 370 and 368 and 374 | Expression of PD-1 in Th9 (PD-1 on Th9 cells; replicate 1): 836 | Expression of PD-1 in Th9 (PD-1 on Th9 cells; replicate 2): 830 | Expression of PD-1 in Th9 (PD-1 on Th9 cells; replicate 3): 871 | Expression of PD-1 in Th9 (PD-1 on Th9 cells; replicate 4): 812 | Expression of PD-1 in Th9 (PD-1 on Th9 cells; replicate 5): 848 | Expression of PD-1 in Th9 (PD-1 on Th9 cells; replicate 6): 842 | PD-1 expression (PD-1 on Th9 cells; fatostatin alone or with EpA): not further increased in EpA-Th9 cells treated with fatostatin | CD69 expression (CD69 on Th9 cells; [6]): elevated in the combination group | CD69 (flow cytometric quantification) (CD69 on Th9 cells; EpA + ERKin combination): 27.9 and 23.5 and 24 and 26.9 and 24.1 | CD69 (flow cytometric quantification) (CD69 on Th9 cells; EpA + MEKin combination): 20.8 and 22.9 and 21.2 and 18.2 and 18.1 | CD69 (flow cytometric quantification) (CD69 on Th9 cells; single agent): 59.4 and 133 and 54.7 and 74.6 and 155 | CD69 expression in Th9 cells (CD69 on Th9 cells; [9]): 54.9 and 46.3 and 45.8 and 49.3 | CD69 expression in Th9 cells (CD69 on Th9 cells; single agent, 10 µM): 41.4 and 40.9 (2×) and 41.7 | MitoTracker Deep Red ([1]; Figure 4M, individual replicates, (n = 5)): 2580000 and 2400000 and 2450000 and 2490000 and 2480000 | Mito tracker (flow cytometric quantification) [1, 7]: 2055 and 2045 and 2104 | Mito tracker (flow cytometric quantification) [1, 8]: 2331 and 2453 and 2355 | Mito tracker (flow cytometric quantification) [1, 5]: 1845 and 1728 and 1865 | mitochondrial membrane potential measured by MitoTracker staining ([1]; EpA + Fato combination, individual replicates): 1707 and 1737 and 1699 | mitochondrial membrane potential measured by MitoTracker staining [1, 5]: 1400 and 1434 and 1409 | mitochondrial membrane potential in Th9 cells ([1]; MigR1 vector, individual replicates): 5844 and 5817 and 5963 and 6149 | mitochondrial membrane potential in Th9 cells ([1]; Srebf1 (overexpressing SREBP1), individual replicates): 5503 and 5279 and 5218 and 5340 | mitochondrial membrane potential ([1]; MEK/ERK inhibition in EpA-treated Th9 cells, MitoTracker, result in words): paradoxical increase in mitochondrial membrane potential | mitochondrial membrane potential ([1]; SREBP1 inhibition (fatostatin) in EpA-Th9, result in words): further augmented | EpA-induced mitochondrial membrane potential upon SREBP1 overexpression ([1]; result in words): abolished | mitochondrial integrity ([1]; result in words): improved mitochondrial integrity | TMRM ([3]; Figure 4N, individual replicates, (n = 5)): 178315 and 162266 and 165932 and 168795 and 170537 | mitochondrial membrane potential ([3]; result in words): elevated mitochondrial membrane potential | mitochondrial mass using Mito Tracker in human Th9 cells ([2]; replicate 1): 2.888 ×10^5 | mitochondrial mass using Mito Tracker in human Th9 cells ([2]; replicate 2): 2.867 ×10^5 | mitochondrial mass using Mito Tracker in human Th9 cells ([2]; replicate 3): 2.9 ×10^5 | mitochondrial membrane potential, human Th9 ([2]; result in words): increased mitochondrial membrane potential
